In US7829297B2, “Treatment of cancers expressing p95 ErbB2” (GlaxoSmithKline LLC, priority 2003, dated 2010):

How the values were obtained:
p95^ErbB2 [1] = experiment: Western blot of p95ErbB2 in BT474 cells; type: cell-based, human
Experimental: (§1) Equal amounts of protein were separated by SDS-PAGE and then ErbB2, p95^ErbB2, pTyr/p95^ErbB2, and pTyr/ErbB2 steady state protein levels were assessed by Western blot. […] Along the left side of the lanes, the uppermost arrow indicates p185; lower arrowhead indicates p95. Molecular weights are indicated on the right side of the figure.

p95^ErbB2 [2] = experiment: p95ErbB2 in BT474 tumor xenografts (Western blot); type: in vivo, mice
Source text: (§2) BT474 tumor xenografts were established in CD-1 nude mice.

[3] = tested on: MAPK-Erk1/2 and PI3K-AKT pathways, cyclin D1/2; experiment: Downstream signaling in BT474 tumor xenografts (Western blot); type: in vivo, mice
Experimental: Equal amounts of protein from tumor xenograft whole cell extracts were separated by SDS-PAGE and steady state protein levels of total and phosphorylated forms Erk1/2 and AKT were assessed by Western blot. Cyclin D1/2 steady state protein levels were also determined.

Erk1/2 and AKT = experiment: Activation of Erk1/2 and AKT by EGF and heregulin in BT474 cells; type: cell-based, human; settings: 1 μM
BT474 cells = experiment: Proliferation of BT474 cells; type: cell-based, human
[4] = tested on: solid tumor overexpressing or expressing activated EGFR or ErbB2; experiment: Open label, multi-dose clinical trial in subjects with cancer; type: in vivo, human
p95 = experiment: Western blot of phospho-p95 in S1 cells; settings: 5 μM, 24 hours
p185^ErbB2 [5] = biological target: T1, p185^ErbB2 (Homo sapiens, UniProt P04626); experiment: Western blot of phospho-p185ErbB2 in S1 cells; settings: 5 μM, 24 hours
p185^ErbB2 [6] = biological target: T1, p185^ErbB2; experiment: Western blot of phospho-p185ErbB2 in Hb4a cells; settings: parental Hb4a cells, 5 μM, 24 hours
ErbB3 = ErbB3 phosphorylation in BT474 tumor xenografts (IP Western blot); settings: 100 mg/kg/dose, compared with vehicle
Experimental: Tumors were removed 4 hours after the last dose, frozen in liquid Nitrogen, and stored at −80° C. until analysis. For the terminal biopsy, mice were euthanized with CO2 inhalation. Cell extracts were prepared by homogenization in RIPA buffer at 4° C.
As shown in FIG. 6a-6c, the activation-state of EGFR, p185^ErbB2, p95^ErbB2, and ErbB3 was assessed by IP Western blot.

p185^ErbB2 [7] = biological target: T1, p185^ErbB2; experiment: Western blot of p185ErbB2 in BT474 cells; type: cell-based; design: The full-length ErbB2 receptor (p185^ErbB2); endogenous in cells; host or cells: BT474
Experimental: as §1

p185^ErbB2 [8] = biological target: T1, p185^ErbB2; experiment: p185ErbB2 in BT474 tumor xenografts (Western blot); type: in vivo, mice; design: The full-length ErbB2 receptor (p185^ErbB2); from tissue; host or cells: BT474 tumour xenografts in mice; settings: GW572016 100 mg/kg/dose PO or trastuzumab IP
Source text: as §2

[9] = 24 hours, 0.5 μM GW572016 or 10 μg/ml trastuzumab
[10] = GW572016 or trastuzumab (10 mg/kg)
[11] = 11 breast cancer subjects previously treated with trastuzumab

T1 sequence (P04626 23-1255): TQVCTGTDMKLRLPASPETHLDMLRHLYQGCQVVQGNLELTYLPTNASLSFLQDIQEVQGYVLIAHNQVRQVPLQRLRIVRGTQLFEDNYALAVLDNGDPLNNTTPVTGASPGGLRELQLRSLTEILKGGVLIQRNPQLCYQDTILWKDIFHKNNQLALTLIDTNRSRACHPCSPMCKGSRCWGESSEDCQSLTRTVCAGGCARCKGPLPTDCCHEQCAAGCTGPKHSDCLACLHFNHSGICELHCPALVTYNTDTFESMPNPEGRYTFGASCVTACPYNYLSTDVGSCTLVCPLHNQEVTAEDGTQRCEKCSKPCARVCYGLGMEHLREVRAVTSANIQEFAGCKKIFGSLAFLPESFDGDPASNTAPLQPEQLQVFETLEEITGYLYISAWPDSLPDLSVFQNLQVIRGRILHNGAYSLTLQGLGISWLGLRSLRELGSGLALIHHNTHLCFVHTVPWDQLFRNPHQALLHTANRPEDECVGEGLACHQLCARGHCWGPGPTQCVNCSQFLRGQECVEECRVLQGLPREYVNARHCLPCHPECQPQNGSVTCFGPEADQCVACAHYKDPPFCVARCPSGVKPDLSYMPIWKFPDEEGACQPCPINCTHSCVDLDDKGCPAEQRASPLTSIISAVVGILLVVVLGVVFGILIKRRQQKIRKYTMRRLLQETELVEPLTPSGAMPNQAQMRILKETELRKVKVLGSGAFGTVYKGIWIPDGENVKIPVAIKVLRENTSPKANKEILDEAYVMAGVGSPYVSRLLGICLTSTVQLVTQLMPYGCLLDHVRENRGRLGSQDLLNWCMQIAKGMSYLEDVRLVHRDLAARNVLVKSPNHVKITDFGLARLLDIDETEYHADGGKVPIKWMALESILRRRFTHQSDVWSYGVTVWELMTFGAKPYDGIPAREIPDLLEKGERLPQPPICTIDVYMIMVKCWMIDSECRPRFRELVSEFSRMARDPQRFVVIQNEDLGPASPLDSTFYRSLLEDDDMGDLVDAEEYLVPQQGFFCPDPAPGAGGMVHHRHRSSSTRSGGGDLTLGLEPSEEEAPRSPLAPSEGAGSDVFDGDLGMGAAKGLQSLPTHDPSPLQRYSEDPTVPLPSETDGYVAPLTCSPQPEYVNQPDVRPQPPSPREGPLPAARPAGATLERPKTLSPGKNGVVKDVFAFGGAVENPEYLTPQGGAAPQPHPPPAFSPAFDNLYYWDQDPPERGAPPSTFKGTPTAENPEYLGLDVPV

CS(=O)(=O)CCNCc1ccc(-c2ccc3ncnc(Nc4ccc(OCc5cccc(F)c5)c(Cl)c4)c3c2)o1 [GW572016, N-{3-Chloro-4-[(3-fluorobenzyl)oxy]phenyl}-6-[5-({[2-(methylsulfonyl)ethyl]amino}methyl)-2-furyl]-4-quinazolinamine]
phosphorylation of p95ErbB2 in presence and absence of HRG and EGF (p95^ErbB2 [1]; 1 μM, 16 hours, ErbB2 IP): inhibited
HRG-induced p95ErbB2 phosphorylation (p95^ErbB2 [1]; 1 μM, 16 hours, HRG 5 nM 15 min, ErbB3 IP): partially blocked
tyrosine phosphorylation of p95ErbB2 (anti-pTyr mAb) (p95^ErbB2 [1]; [9]): inhibited
steady state protein levels of total p95ErbB2 (p95^ErbB2 [2]; GW572016 100 mg/kg/dose PO or trastuzumab IP): unchanged
phospho-p95ErbB2 steady state protein levels (p95^ErbB2 [2]; GW572016 100 mg/kg/dose PO, 100 mg/kg): markedly inhibited
Y1248 phosphorylation in p95ErbB2 (p95^ErbB2 [2]; GW572016 100 mg/kg/dose or trastuzumab): inhibited
total steady state protein levels of Erk1/2 and AKT [3]: without affecting
cyclin D steady state protein levels [3, 10]: inhibited
p-AKT steady state protein levels [3, 10]: inhibited
p-Erk1/2 steady state protein levels [3, 10]: inhibited
EGF-induced increase of p-Erk1/2 steady state protein levels (Erk1/2 and AKT; EGF 50 ng/ml 15 minutes): blocked
HRG-induced AKT phosphorylation (Erk1/2 and AKT; HRG): partially inhibited
proliferation of BT474 cells (BT474 cells): inhibited
reversal of antiproliferative effect in the presence of EGF (BT474 cells; BT474 cells): not completely reversed
effect of prolonged incubation on protection by heregulin (BT474 cells; BT474 cells, 1 μM, prolonged incubation (data not shown)): abrogated the protective effects of heregulin
reversal of inhibitory effects by addition of heregulin (BT474 cells; BT474 cells, 72 hour assay): partially reversed
Partial Responses among breast cancer subjects [4, 11]: three
Stable Disease among breast cancer subjects [4, 11]: four
breast cancer subjects exhibiting responses, of eleven ([4]; 11 breast cancer subjects, all previously treated with trastuzumab, oral ditosylate salt, daily): seven
response of bone metastases ([4]; Patient No. 361, 1200 mg/day): did not respond
time to disappearance of all subcutaneous nodules ([4]; Patient No. 361, 1200 mg/day): ≤ 28 days
anterior abdominal wall nodules ([4]; Patient No. 372, 1200 mg/day): improved
decrease in two right breast masses ([4]; Patient No. 372, 1200 mg/day, August to October 2002): 70%
stable disease, number of subjects ([4]; adenocarcinoma of unknown primary origin): 1
stable disease, number of subjects ([4]; colorectal cancer): 2
stable disease, number of subjects ([4]; granular cell cancer): 1
stable disease, number of subjects ([4]; head and neck cancer): 1
total responses out of 33 subjects ([4]; initial 33 subjects with validated responses, all tumor types): 15
stable disease, number of subjects ([4]; lung cancer): 1
stable disease, number of subjects ([4]; ovarian cancer): 2
p95 phosphorylation (p95): inhibited
p185ErbB2 phosphorylation (p185^ErbB2 [5]): inhibited
phosphorylation of p185ErbB2 (p185^ErbB2 [6]): inhibited
ErbB3 tyrosine phosphorylation (ErbB3): markedly inhibited
phosphorylation of p185ErbB2 in presence and absence of HRG and EGF (p185^ErbB2 [7]; 1 μM, 16 hours, ErbB2 IP): inhibited
p185ErbB2 phosphorylation (anti-pTyr Western blot) (p185^ErbB2 [7]; 1 μM, 24 hours): inhibited
steady-state p185ErbB2 protein levels (anti-ErbB2 ECD mAb) (p185^ErbB2 [7]; [9]): did not vary
tyrosine phosphorylation of p185ErbB2 (anti-pTyr mAb) (p185^ErbB2 [7]; [9]): inhibited
phospho-p185ErbB2 steady state protein levels (p185^ErbB2 [8]): inhibited
steady state protein levels of total p185ErbB2 (p185^ErbB2 [8]): unchanged
